Experimental data taken from PMC7318006, “Anidulafungin and Micafungin Concentrations in Cerebrospinal Fluid and in Cerebral Cortex” (Antimicrobial Agents and Chemotherapy, 2020).
Read-outs that look alike come from different tables or passages of the source. Starred links: 1 amine or outer side, 2 acyl side, 3 side chain; linkers in the order of their positions; H or OH if unused. Positions of bridges follow the written chain, without caps; N, C: chain ends. Non-standard residues stand in square brackets, D forms with d. Residues, ends and D or L forms follow the SMILES beside them. *: point of attachment. hTyr(3S-OH,4S-OH,3'-OSO3H) = N[C@H](C(=O)O)[C@H](O)[C@@H](O)c1ccc(O)c(OS(=O)(=O)O)c1; pTerphenylCO(4''-OnC5H11) = CCCCCOc1ccc(-c2ccc(-c3ccc(C(=O)*)cc3)cc2)cc1; Orn(4R-OH,5R-OH) = O=C([C@H](C[C@@H](O)[C@@H](O)N[*:3])N[*:1])[*:2]; hTyr(3S-OH,4S-OH) = N[C@H](C(=O)O)[C@H](O)[C@@H](O)c1ccc(O)cc1; Pro(3S-OH,4S-Me) = C[C@H]1CN[C@H](C(=O)O)[C@H]1O; X1 = CCCCCOc1ccc(-c2cc(-c3ccc(C(=O)*)cc3)no2)cc1; Gln(3R-OH) = NC(=O)C[C@@H](O)[C@H](N)C(=O)O; Hyp = O=C(O)[C@@H]1C[C@@H](O)CN1

How the values were obtained:
[1] = Concentration in autopsy samples of cerebral cortex of deceased patients, HPLC-UV; assay type: in vivo, human
Procedure: The cerebral cortex of deceased patients who had received anidulafungin or micafungin within their last 30 days of life was sampled during autopsy, which is routinely performed for quality assurance in Austrian hospitals. Anidulafungin and micafungin were extracted from 0.2 g of tissue by addition of 250 μl of acetonitrile and 250 μl of methanol (Sigma-Aldrich, Vienna, Austria), homogenization with a Precellys homogenizer (Bertin Instruments, Montigny-le-Bretonneux, France) at 4,500 rpm (twice for 25 s, 2-s break), and centrifugation for 5 min at 8°C and 4,665 × g. For calibration, we used porcine brain samples spiked with anidulafungin or micafungin and homogenized and proceeded in the same manner. Both echinocandins were quantified by HPLC-UV at 306 nm ([5]). The lower limit of quantification was 0.05 μg/g for anidulafungin and 0.10 μg/g for micafungin. The extraction recovery from brain was ∼40% and ∼60% for anidulafungin and micafungin, respectively.

[2] = Concentration in arterial plasma of critically ill adults drawn simultaneously with CSF, HPLC-UV; assay type: in vivo, human; conditions: for AUC(0-t) / half-life / Cmax / Tmax: intravenous; for AUC(0-t): read-out: AUC0–24 in plasma; for half-life: read-out: t1/2 (half-life) in plasma (converted); for Cmax: read-out: Cmax (peak concentration) in plasma; for Tmax: read-out: Tmax (time to Cmax) in plasma
Procedure: CSF was taken during diagnostic lumbar puncture (LP) or via external ventricular drain (EVD) from critically ill adults treated with anidulafungin or micafungin. Simultaneously, we took 2-ml arterial blood samples. CSF and plasma were stored at –80°C.
Anidulafungin and micafungin concentrations were quantified by high-performance liquid chromatography and UV detection (HPLC-UV) as described previously ([5]). Noncompartmental pharmacokinetics was calculated with Kinetica 2000 (InnaPhase Corporation, Champs-sur-Marne, France). The area under the concentration-time curve from 0 to 24 h (AUC0–24) was computed with the log-linear method when the concentration in a trapezoid decreased or with the trapezoidal method when the concentration increased.

[3] = cumulative dose 200 mg; for Cmax (peak concentration) in CSF: steady state not reached
[4] = Stability in brain tissue at 4°C; assay type: in vitro ADME, human; conditions: brain tissue at 4°C (storage temperature of the corpses)
Procedure: (§1) In brain specimens, we cannot rule out minor agonal or postmortem changes of anidulafungin and micafungin concentrations, although anidulafungin and micafungin were stable in the brains of deceased patients for at least 96 h. Brain specimens consist of various compartments, e.g., different cells, extracellular matrix, and blood vessels. Anidulafungin and micafungin were not quantified on a cellular level or in different brain areas. Echinocandin extraction from human brain might yield slightly lower recovery than extraction from external standards. In rats, [^3H]caspofungin brain concentrations were ≤0.16 μg eq/g ([17]). In rabbits, micafungin brain concentrations were <0.19 μg/g, and those of anidulafungin were <4.0 μg/g ([18], [19]). In a biopsy sample of a brain abscess, a micafungin concentration of 0.26 μg/g was measured ([20]).

[5] = cited from earlier work
Procedure: as §1, with “brain” for “brain concentrations were ≤0.16 μg eq/g ([17]). In rabbits, micafungin brain concentrations were <0.19 μg/g, and those of anidulafungin were <4.0 μg/g ([18], [19]). In a biopsy sample of a brain abscess, a micafungin”, “...” for “of 0.26 μg/g was measured ([20]).”

Candida strains = conditions: pharmacodynamic target, not achieved in CSF of patients 2 and 5; cited from earlier work
Procedure: In some of the CSF and brain specimens, measured anidulafungin and micafungin concentrations were below the MICs reported for relevant Candida species (i.e., 0.008 to 4.0 μg/ml) ([6]). […] However, the relevance of in vitro MIC values for antifungal activity of echinocandins in CSF and in CNS remains to be clarified. In CSF, protein binding of anidulafungin and micafungin is unk ...

clinical = conditions: human, in vivo, iv
[6] = cited from earlier work; remark: listed apart in the source
[7] = human, plasma, patient 2, cumulative dose 200 mg, treatment day 1, noncompartmental
[8] = patient 2, external ventricular drainage, treatment day 1, noncompartmental
[9] = human, plasma, patient 5, cumulative dose 200 mg, treatment day 2, noncompartmental
[10] = patient 5, external ventricular drainage, treatment day 2, noncompartmental

CCCCCOc1ccc(-c2ccc(-c3ccc(C(=O)N[C@H]4C[C@@H](O)[C@@H](O)NC(=O)[C@@H]5[C@@H](O)[C@@H](C)CN5C(=O)[C@H]([C@@H](C)O)NC(=O)[C@H]([C@H](O)[C@@H](O)c5ccc(O)cc5)NC(=O)[C@@H]5C[C@@H](O)CN5C(=O)[C@H]([C@@H](C)O)NC4=O)cc3)cc2)cc1 [anidulafungin] ({pTerphenylCO(4''-OnC5H11)}-[Orn(4R-OH,5R-OH)]T[Hyp][hTyr(3S-OH,4S-OH)]T[Pro(3S-OH,4S-Me)]; lactam 1-C)
tissue level at time at 29 h ([1]; human, cerebral cortex, 1200 mg, patient 10, cumulative dose 1,200 mg, treatment 11 days, 29 h between last administration and death, 21 h between death and sampling, LLOQ 0.05 μg/g, read-out: Concn in cerebral cortex (autopsy)): 1580 ng/g
tissue level at time at 12 h ([1]; human, cerebral cortex, 1500 mg, patient 9, cumulative dose 1,500 mg, treatment 14 days, 12 h between last administration and death, 15 h between death and sampling, LLOQ 0.05 μg/g, read-out: Concn in cerebral cortex (autopsy)): 2340 ng/g
tissue level at time at 313 h ([1]; human, cerebral cortex, 1800 mg, patient 8, cumulative dose 1,800 mg, treatment 17 days, 313 h between last administration and death, 25 h between death and sampling, LLOQ 0.05 μg/g, read-out: Concn in cerebral cortex (autopsy)): 280 ng/g
tissue level at time at 32 h ([1]; human, cerebral cortex, patient 7, cumulative dose 700 mg, treatment 6 days, 32 h between last administration and death, 14 h between death and sampling, LLOQ 0.05 μg/g, read-out: Concn in cerebral cortex (autopsy)): 210 ng/g
AUC(0-t) [2, 7]: 29400 ng·h/mL
half-life [2, 7]: 14.7 h
Cmax ([2]; human, plasma, patient 2, cumulative dose 200 mg, treatment day 1, sampling before and 1, 4, 8, 12, 18, 24 h after start of infusion, steady state not reached): 2720 ng/mL
Tmax ([2]; human, plasma, patient 2, cumulative dose 200 mg, treatment day 1): 1 h
level at 0.5 h ([2]; human, plasma, iv, 2500 mg, patient 3, arterial blood simultaneous with lumbar puncture, cumulative dose 2,500 mg, treatment day 24, 0.5 h from start of infusion, steady state, read-out: Plasma concn): 5070 ng/mL
level at 3 h ([2]; human, plasma, iv, patient 1, arterial blood simultaneous with lumbar puncture, cumulative dose 300 mg, treatment day 3, 3.0 h from start of infusion, steady state not reached, read-out: Plasma concn): 3830 ng/mL
Cmin (trough concentration) in plasma ([2]; patient 2, cumulative dose 200 mg, treatment day 1, steady state not reached): 770 ng/mL
Tmax (time to Cmax) in CSF ([3]; patient 2, external ventricular drainage, treatment day 1): 1 h
AUC0–24 in CSF [3, 8]: 2090 ng·h/mL
t1/2 (half-life) in CSF [3, 8]: 7.90 h
Cmax (peak concentration) in CSF ([3]; patient 2, external ventricular drainage, treatment day 1, sampling before and 1, 4, 8, 12, 18, 24 h after start of infusion): 660 ng/mL
Cmin (trough concentration) in CSF ([3]; patient 2, external ventricular drainage, treatment day 1, steady state not reached): 30 ng/mL
Time stable in brain tissue [4]: at least 96 h
Brain concentrations ([5]; rabbits): < 4.0 µg/g
Target AUC0–24/MIC ratio suggested (Candida strains): 2,782
Kp (clinical; 200 mg): 0.07
Kp at 3 h (clinical; 300 mg): 0.01
Kp at 0.5 h (clinical; 2500 mg): < 0.002

CCCCCOc1ccc(-c2cc(-c3ccc(C(=O)N[C@H]4C[C@@H](O)[C@@H](O)NC(=O)[C@@H]5[C@@H](O)[C@@H](C)CN5C(=O)[C@H]([C@H](O)CC(N)=O)NC(=O)[C@H]([C@H](O)[C@@H](O)c5ccc(O)c(OS(=O)(=O)O)c5)NC(=O)[C@@H]5C[C@@H](O)CN5C(=O)[C@H]([C@@H](C)O)NC4=O)cc3)no2)cc1 [micafungin] (X1-[Orn(4R-OH,5R-OH)]T[Hyp][hTyr(3S-OH,4S-OH,3'-OSO3H)][Gln(3R-OH)][Pro(3S-OH,4S-Me)]; lactam 1-C)
Time after treatment at which the drug was still measurable in cerebral cortex ([1]; autopsy samples of deceased patients): 10 days
tissue level at time at 712 h ([1]; human, cerebral cortex, 1100 mg, patient 11, cumulative dose 1,100 mg, treatment 19 days, 712 h between last administration and death, 58 h between death and sampling, LLOQ 0.10 μg/g, read-out: Concn in cerebral cortex (autopsy)): < 100 ng/g
tissue level at time at 235 h ([1]; human, cerebral cortex, 4000 mg, patient 16, cumulative dose 4,000 mg, treatment 39 days, 235 h between last administration and death, 29 h between death and sampling, LLOQ 0.10 μg/g, read-out: Concn in cerebral cortex (autopsy)): 190 ng/g
tissue level at time at 111 h ([1]; human, cerebral cortex, intravenous, 1800 mg, patient 13, cumulative dose 1,800 mg, treatment 18 days, 111 h between last administration and death, 38 h between death and sampling, LLOQ 0.10 μg/g, read-out: Concn in cerebral cortex (autopsy)): 180 ng/g
tissue level at time at 230 h ([1]; human, cerebral cortex, intravenous, 5300 mg, patient 12, cumulative dose 5,300 mg, treatment 28 days, 230 h between last administration and death, 85 h between death and sampling, LLOQ 0.10 μg/g, read-out: Concn in cerebral cortex (autopsy)): 1520 ng/g
tissue level at time at 99 h ([1]; human, cerebral cortex, patient 14, cumulative dose 500 mg, treatment 4 days, 25 h between last administration and death, 74 h between death and sampling, LLOQ 0.10 μg/g, read-out: Concn in cerebral cortex (autopsy)): 2880 ng/g
tissue level at time at 324 h ([1]; human, cerebral cortex, patient 15, cumulative dose 300 mg, treatment 3 days, 324 h between last administration and death, 80 h between death and sampling, LLOQ 0.10 μg/g, read-out: Concn in cerebral cortex (autopsy)): < 100 ng/g
AUC(0-t) [2, 9]: 113000 ng·h/mL
half-life [2, 9]: 12.9 h
Cmax ([2]; human, plasma, patient 5, cumulative dose 200 mg, treatment day 2, sampling before and 1, 4, 8, 12, 18, 24 h after start of infusion, steady state not reached): 8700 ng/mL
Tmax ([2]; human, plasma, patient 5, cumulative dose 200 mg, treatment day 2): 1 h
level at 2.5 h ([2]; human, plasma, iv, 1300 mg, patient 6, arterial blood simultaneous with lumbar puncture, cumulative dose 1,300 mg, treatment day 13, 2.5 h from start of infusion, steady state, read-out: Plasma concn): 3510 ng/mL
level at 16 h ([2]; human, plasma, iv, patient 4, arterial blood simultaneous with lumbar puncture, cumulative dose 200 mg, treatment day 2, 16.0 h from start of infusion, steady state not reached, read-out: Plasma concn): 1210 ng/mL
Cmin (trough concentration) in plasma ([2]; patient 5, cumulative dose 200 mg, treatment day 2, steady state not reached): 2160 ng/mL
Tmax (time to Cmax) in CSF ([3]; patient 5, external ventricular drainage, treatment day 2): 4 h
Cmin (trough concentration) in CSF ([3]; patient 5, external ventricular drainage, treatment day 2, LLOQ 0.01 μg/ml): <10 ng/mL
AUC0–24 in CSF [3, 10]: 2010 ng·h/mL
t1/2 (half-life) in CSF [3, 10]: 13.80 h
Cmax (peak concentration) in CSF ([3]; patient 5, external ventricular drainage, treatment day 2, sampling before and 1, 4, 8, 12, 18, 24 h after start of infusion): 160 ng/mL
Time stable in brain tissue [4]: at least 96 h
Concentration in biopsy sample of a brain abscess [5]: 0.26 µg/g
Brain concentrations ([5]; rabbits): < 0.19 µg/g
CSF concentration ([6]; cerebral aspergillosis, 2-fold maximum dose, 300 mg/day): < 0.02 µg/mL
Target AUC0–24/MIC ratio suggested (Candida strains): 5,299
Kp (clinical; 200 mg): 0.02
Kp at 16 h (clinical; 200 mg): 0.08
level at 16 h (clinical; 200 mg): 90 ng/mL
Kp at 2.5 h (clinical; 1300 mg): 0.03

Caspofungin
Detection in CSF ([6]; human, in vivo): undetectable
Detection in CSF ([6]; in 9 of 11 CSF samples from children with hematological malignancies): undetectable

[^3H]caspofungin
Brain concentrations ([5]; rats): ≤ 0.16 μg eq/g
